Values joined by “and” are separate entries in the source; they are usually repeats but may differ in a detail not shown here. Identical values can stand only once. “Also recorded” adds a separate entry of the source.

Data set [1] is described as follows: Toxicity (TOX), rotorod procedure, mice. Format: in vivo. Conditions: mouse, in vivo; Mice IP, rotorod; read-out: TD50 TOX. (The rotarod test checks motor coordination on a turning rod.)
For data set [2], the target named is T1, GABAA/α1 (α1β3γ2 GABAA receptors) (Homo sapiens, UniProt P14867+P18507).
T1 construct: expressed in transfected cells
Description: Competitive binding assay, [3H]flunitrazepam. The note with it: Binding Affinity at GABAA/α1, αxβ3γ2, [3H]flunitrazepam competition. In short, it runs like this: (§1)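 Bound ligand was collected on 0.3% polyethyleneimine-pretreated GF/C filters with three ice-cold washes and quantified by liquid scintillation counting; membrane protein was determined against a BSA standard.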

For data set [3], the target named is T2, GABAA/α5 (α5β3γ2 GABAA receptors) (Homo sapiens, UniProt P18507+P31644).
T2 construct: expressed in transfected cells
The data set can be described thus: Competitive binding assay, [3H]flunitrazepam. The note with it: Binding Affinity at GABAA/α5, αxβ3γ2, [3H]flunitrazepam competition. In short, it runs like this:
as §1

The subject of data set [4] is Metrazol-induced clonic seizures. The data set can be described thus: Tolerance study, 5 day dosing, scMet. Format: in vivo, Sprague Dawley rats. As to the method: The dose utilized was the predetermined ED50 against the scMet seizure model. In this model a subcutaneous injection of the convulsant Metrazol is used to produce highly reproducible clonic seizures in laboratory animals. […] Animals are pretreated with various doses of the test compound. At the time of peak effect (TPE) of the test compound, a dose of Metrazol that induce convulsions in 97% of animals (CD97: 85 mg/kg mice) is injected into a loose fold of skin in the midline of the neck. The animals are placed in isolation cages to minimize stress (Swinyard et al., 1961) and observed for the next 30 minutes for the presence or absence of a seizure. An episode of clonic spasms, approximately 3-5 seconds, of the fore and/or hindlimbs, jaws, or vibrissae is taken as the endpoint.
In this study, Sprague Dawley rats were used (average weight 150 gm). […] Finally, Group 3 was the solvent control group. These animals were administered the test solvent (methylcellulose 0.5%) as a control. Here methylcellulose was administered i.p. for all 5 days.
On day 5, all animals from each group were tested in the scMet model using the previously determined time of peak effect (TPE) of 15 minutes. Immediately after testing, blood was collected via cardiac puncture. Samples were spun down, plasma was collected and acetonitrile added. Samples were frozen at −80° C. and shipped to a commercial laboratory (Enthalpy) for analysis.

A short description of data set [5]: Plasma levels by LC-MS/MS (tolerance study). The format is in vivo, Sprague Dawley rats. Conditions: for Conc HZ-166 in plasma, individual subjects: 35.5 mg/kg. On the procedure:
Immediately after testing, blood was collected via cardiac puncture. Samples were spun down, plasma was collected and acetonitrile added. Samples were frozen at −80° C. and shipped to a commercial laboratory (Enthalpy) for analysis.
Group 3 (8 subjects) was dosed with vehicle only.

Data set [6] has as its system Pilocarpine-induced Status. The data set can be described thus: Pilocarpine-induced status. Format: in vivo, rats. The note with it: for Pilocarpine-induced Status, Time to Peak Effect, ratio of animals: Time 0 Hrs.

On to `C#Cc1ccc2c(c1)C(c1ccccc1F)=NCc1c(C(=O)OCC)ncn1-2` [JY-XHe-053 (15), Ethyl-8-acetyleno-6-(2′-fluorophenyl)-4H-benzo[f]imidazo[1,5-a][1,4]diazepine-3-carboxylate], for which the TD50 in data set [1] was over 400 mg/kg. Also, the Ki came out at 0.022 µM in data set [2] and 0.000671 µM in data set [3].

Consider `C#Cc1ccc2c(c1)C(c1ccccn1)=NCc1c(C(=O)OCC)ncn1-2` [Hz166 (106), 8-Acetylenyl-6-pyridin-2-yl-4H-benzo[f]imidazo[1,5-a][1,4]diazepine-3-carboxylic acid ethyl ester], for which, in data set [4] (Group 1 chronic dosing, day 5), the “protection against scMet induced seizures” value is on record as “approximately 40%”. For the same molecule, the “scMet, animals protected/tested” value in data set [4] (Group 1 chronic dosing: 35.5 mg/kg ip once daily 5 days, tested day 5 at TPE 15 min, 35.5 mg/kg) was 3/8 and 3/8 protected (chronic dosing); in data set [4] (Group 2 acute dosing: single 35.5 mg/kg ip dose on day 5, TPE 15 min, 35.5 mg/kg), 1/8 and 1/8 (acute dosing); in data set [4] (original preliminary study (different rats), acutely treated group) it was 5/8; in data set [4] (original preliminary study (different rats), chronically treated group) it was 5/8. Besides, in data set [4] (rats, dosed 5 days at the calculated scMet ED50), the “tolerance to the anticonvulsant effects” value is “didn't develop tolerance; also recorded: did not develop tolerance”. The TD50 in data set [1] is over 500 mg/kg. Also, the figures for the “HZ-166, plasma average with outliers excluded” value in data set [5] (Group 1 (five days dosing)) and in data set [5] (Group 2 (day 5 only)) were 0.334 nmol/mL and 0.533 nmol/mL, respectively. The “Conc HZ-166 in plasma, individual subjects” value is 94.3 ng/mL and 85.4 ng/mL and 168 ng/mL and 138 ng/mL and BLQ < (1.00) ng/mL and 118 ng/mL and 198 ng/mL and 30.5 ng/mL in data set [5] (Group 1: HZ-166 35.5 mg/kg ip for five days, blood after test on day 5); 202 ng/mL and 165 ng/mL and 8.67 ng/mL and 273 ng/mL and 210 ng/mL and 93.3 ng/mL and 176 ng/mL in data set [5] (Group 2: HZ-166 35.5 mg/kg ip on day 5 only).

Consider `C#Cc1ccc2c(c1)C(c1ccccc1)=N[C@H](C)c1nnc(C)n1-2` [SH-TR-CH3 (146), (4R)-8-Ethynyl-1,4-dimethyl-6-phenyl-4H-benzo[f][1,2,4]triazolo[4,3-a][1,4]diazepine], for which the inhibition constant Ki amounted to 7.37 µM in data set [2] and 1.95 µM in data set [3]. Moreover, the “Pilocarpine-induced Status, Time to Peak Effect, ratio of animals” value in data set [6] (Rats, 100 mg/kg, 0.25 Hr) is on record as 0/2; in data set [6] (Rats, 100 mg/kg, 0.5 Hr) it was 0/2; in data set [6] (Rats, 100 mg/kg, 1.0 Hr), 0/2; in data set [6] (Rats, 100 mg/kg, 2.0 Hr), 0/2; in data set [6] (Rats, 100 mg/kg, 4.0 Hr), 0/2; in data set [6] (Rats, 300 mg/kg, 0.25 Hr), 0/2. The “Pilocarpine-induced Status, Time to Peak Effect, ratio of animals” value is 0/2 in data set [6] (Rats, 300 mg/kg, 0.5 Hr); 0/2 in data set [6] (Rats, 300 mg/kg, 1.0 Hr); 0/2 in data set [6] (Rats, 300 mg/kg, 2.0 Hr); 0/2 in data set [6] (Rats, 300 mg/kg, 4.0 Hr); 0/2^12 in data set [6] (Rats, 500 mg/kg, 0.25 Hr, Ataxia noted); 0/2^12 in data set [6] (Rats, 500 mg/kg, 0.5 Hr, Ataxia noted). Moreover, the “Pilocarpine-induced Status, Time to Peak Effect, ratio of animals” value in data set [6] (Rats, 500 mg/kg, 1.0 Hr, Ataxia noted) was 0/2^12; in data set [6] (Rats, 500 mg/kg, 2.0 Hr, Ataxia noted) it was 0/2^12; in data set [6] (Rats, 500 mg/kg, 4.0 Hr), 0/2. Moreover, the “Pilocarpine-induced Status, ratio of animals” value in data set [6] (Rats, 600 mg/kg, 0 Hrs post first Stage III seizure) is 4/7; in data set [6] (Rats, 1,000 mg/kg, 0.5 Hrs post first Stage III seizure, footnote c: death) it was 1/7^c.

Broadly, the TD50 is the dose at which the toxic effect under study appears in half of the subjects. In general, Ki refers to a dissociation constant, usually derived from enzyme kinetics or from competition with a known ligand. A higher Ki goes with weaker binding.

Source of the values: US20100261711A1, “SELECTIVE ANTICONVULSANT AGENTS AND THEIR USES” (WiSys Technology Foundation, priority 2009, published 2010).
